This note sets out measurements from article PMC4685510, “A Cell Biologist’s Field Guide to Aurora Kinase Inhibitors” (Frontiers in Oncology, 2015).

Holding throughout (test): biochemical
Holding throughout (format): biochemical

For test [1], the target named is 363 human kinases (including Aurora A/B/C) (Homo sapiens, UniProt P06213). The settings on record: IR; for remaining activity at 0.5 µM / remaining activity at 0.1 µM: read-out: % Enzyme Activity (relative to DMSO controls); for remaining activity at 0.1 µM: 100 nM.
Sequence of 363 human kinases (including Aurora A/B/C) (Homo sapiens, UniProt P06213) (P06213 28-1382): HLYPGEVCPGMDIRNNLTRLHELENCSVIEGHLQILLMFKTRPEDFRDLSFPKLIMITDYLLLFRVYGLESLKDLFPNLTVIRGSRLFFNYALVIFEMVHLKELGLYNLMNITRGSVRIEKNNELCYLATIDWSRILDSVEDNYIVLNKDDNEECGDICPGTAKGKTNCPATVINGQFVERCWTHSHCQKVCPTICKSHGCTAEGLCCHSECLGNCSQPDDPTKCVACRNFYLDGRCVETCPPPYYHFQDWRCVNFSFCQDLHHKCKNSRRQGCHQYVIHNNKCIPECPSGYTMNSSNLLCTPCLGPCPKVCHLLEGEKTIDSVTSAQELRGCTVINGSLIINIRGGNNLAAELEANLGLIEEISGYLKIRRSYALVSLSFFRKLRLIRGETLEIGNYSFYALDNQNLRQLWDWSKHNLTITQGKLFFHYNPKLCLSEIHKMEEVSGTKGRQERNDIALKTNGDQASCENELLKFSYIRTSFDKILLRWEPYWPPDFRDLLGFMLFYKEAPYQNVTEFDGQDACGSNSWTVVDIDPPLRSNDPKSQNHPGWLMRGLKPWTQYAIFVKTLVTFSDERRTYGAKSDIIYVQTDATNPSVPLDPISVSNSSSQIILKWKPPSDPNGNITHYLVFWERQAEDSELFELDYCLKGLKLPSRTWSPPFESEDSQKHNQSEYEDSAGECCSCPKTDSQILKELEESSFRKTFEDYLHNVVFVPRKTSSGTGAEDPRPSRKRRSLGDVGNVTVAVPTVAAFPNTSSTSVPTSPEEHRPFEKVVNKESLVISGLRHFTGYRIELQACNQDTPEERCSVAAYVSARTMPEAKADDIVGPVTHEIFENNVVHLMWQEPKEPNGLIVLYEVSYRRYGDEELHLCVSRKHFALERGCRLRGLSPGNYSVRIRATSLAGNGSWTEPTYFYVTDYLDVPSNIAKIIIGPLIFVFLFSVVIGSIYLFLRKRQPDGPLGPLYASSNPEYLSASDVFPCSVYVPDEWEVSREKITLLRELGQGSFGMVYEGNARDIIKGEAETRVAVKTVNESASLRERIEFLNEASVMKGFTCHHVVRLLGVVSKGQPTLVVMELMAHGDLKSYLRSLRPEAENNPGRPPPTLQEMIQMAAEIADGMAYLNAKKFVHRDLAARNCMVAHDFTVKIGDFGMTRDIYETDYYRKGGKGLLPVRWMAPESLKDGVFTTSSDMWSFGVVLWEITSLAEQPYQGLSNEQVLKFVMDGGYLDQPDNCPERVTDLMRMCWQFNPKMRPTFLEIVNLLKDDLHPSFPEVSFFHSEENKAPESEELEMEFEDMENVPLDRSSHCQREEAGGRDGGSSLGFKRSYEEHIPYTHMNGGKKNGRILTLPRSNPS
From the text: (§1) However, the Aurora A/B selectivity ratios derived from our in vitro and in vivo data can be compared to prioritize inhibitors.
Test [2] deals with T1, 363 human kinases (including Aurora A/B/C) (Homo sapiens, UniProt Q05513).
T1 sequence (Q05513 1-592): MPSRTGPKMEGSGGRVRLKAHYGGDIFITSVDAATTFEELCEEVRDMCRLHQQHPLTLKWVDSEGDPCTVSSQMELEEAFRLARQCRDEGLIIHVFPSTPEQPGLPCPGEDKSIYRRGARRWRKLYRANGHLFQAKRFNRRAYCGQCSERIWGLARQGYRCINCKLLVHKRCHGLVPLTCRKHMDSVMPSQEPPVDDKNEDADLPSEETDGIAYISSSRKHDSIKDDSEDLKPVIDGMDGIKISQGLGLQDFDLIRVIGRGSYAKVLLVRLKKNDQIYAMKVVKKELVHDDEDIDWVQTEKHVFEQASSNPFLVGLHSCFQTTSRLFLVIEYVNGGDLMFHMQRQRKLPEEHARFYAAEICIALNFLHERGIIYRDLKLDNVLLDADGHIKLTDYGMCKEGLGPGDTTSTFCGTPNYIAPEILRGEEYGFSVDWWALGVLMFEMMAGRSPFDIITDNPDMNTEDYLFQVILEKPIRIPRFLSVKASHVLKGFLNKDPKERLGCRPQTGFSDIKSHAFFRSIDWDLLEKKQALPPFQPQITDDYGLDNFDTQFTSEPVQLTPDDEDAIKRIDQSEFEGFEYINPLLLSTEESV
Particulars: PKCzeta; for remaining activity at 0.5 µM / remaining activity at 0.1 µM: read-out: % Enzyme Activity (relative to DMSO controls); for remaining activity at 0.1 µM: 100 nM.
From the text: as §1

In test [3] the target is 363 human kinases (including Aurora A/B/C) (Homo sapiens, UniProt P43250). The settings on record: GRK6; for remaining activity at 0.5 µM / remaining activity at 0.1 µM: read-out: % Enzyme Activity (relative to DMSO controls); for remaining activity at 0.1 µM: 100 nM.
Sequence of 363 human kinases (including Aurora A/B/C) (Homo sapiens, UniProt P43250) (P43250 whole entry): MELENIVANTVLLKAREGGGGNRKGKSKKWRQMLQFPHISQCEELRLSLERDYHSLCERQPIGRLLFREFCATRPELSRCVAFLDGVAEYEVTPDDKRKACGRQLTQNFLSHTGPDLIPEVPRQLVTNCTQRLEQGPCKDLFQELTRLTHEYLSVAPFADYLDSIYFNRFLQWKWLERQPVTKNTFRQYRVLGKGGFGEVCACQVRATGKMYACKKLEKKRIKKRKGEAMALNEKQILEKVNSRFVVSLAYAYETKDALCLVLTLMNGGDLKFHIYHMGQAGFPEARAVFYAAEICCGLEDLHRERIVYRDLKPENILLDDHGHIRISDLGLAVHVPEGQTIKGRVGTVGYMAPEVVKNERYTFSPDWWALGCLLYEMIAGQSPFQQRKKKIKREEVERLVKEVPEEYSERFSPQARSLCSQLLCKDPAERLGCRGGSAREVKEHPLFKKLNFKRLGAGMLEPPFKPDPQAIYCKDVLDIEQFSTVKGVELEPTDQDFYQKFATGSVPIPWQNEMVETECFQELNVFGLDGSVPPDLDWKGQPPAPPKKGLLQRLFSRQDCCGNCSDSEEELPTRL
From the text: as §1
In test [4] the target is T2, 363 human kinases (including Aurora A/B/C) (Homo sapiens, UniProt Q16832).
T2 sequence (Q16832 22-855): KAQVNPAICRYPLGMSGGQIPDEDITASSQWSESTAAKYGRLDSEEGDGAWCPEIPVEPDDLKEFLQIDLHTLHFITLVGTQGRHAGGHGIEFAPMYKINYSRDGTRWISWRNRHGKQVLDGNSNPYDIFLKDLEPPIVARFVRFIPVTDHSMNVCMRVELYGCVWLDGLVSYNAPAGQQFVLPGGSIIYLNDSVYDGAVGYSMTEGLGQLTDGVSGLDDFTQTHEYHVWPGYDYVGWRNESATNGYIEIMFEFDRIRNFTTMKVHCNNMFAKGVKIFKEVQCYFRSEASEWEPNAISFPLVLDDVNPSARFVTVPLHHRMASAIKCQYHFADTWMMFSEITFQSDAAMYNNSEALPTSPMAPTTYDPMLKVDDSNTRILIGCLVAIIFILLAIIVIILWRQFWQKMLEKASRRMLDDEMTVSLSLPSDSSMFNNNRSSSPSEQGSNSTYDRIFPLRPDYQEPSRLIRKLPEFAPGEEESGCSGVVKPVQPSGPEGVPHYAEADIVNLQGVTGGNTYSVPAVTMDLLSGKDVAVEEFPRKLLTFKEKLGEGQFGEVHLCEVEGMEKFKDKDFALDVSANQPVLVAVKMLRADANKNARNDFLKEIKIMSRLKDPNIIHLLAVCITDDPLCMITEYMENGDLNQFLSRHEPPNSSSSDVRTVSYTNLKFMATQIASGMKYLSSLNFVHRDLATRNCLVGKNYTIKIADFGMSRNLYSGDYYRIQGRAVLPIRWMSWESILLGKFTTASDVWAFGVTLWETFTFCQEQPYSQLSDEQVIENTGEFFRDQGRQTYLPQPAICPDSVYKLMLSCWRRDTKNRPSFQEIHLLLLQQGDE
The settings on record: DDR2, [ATP] 5 µM; for remaining activity at 0.5 µM / remaining activity at 0.1 µM: read-out: % Enzyme Activity (relative to DMSO controls); for remaining activity at 0.1 µM: 100 nM.
From the text: as §1

The target of test [5] is 363 human kinases (including Aurora A/B/C) (Homo sapiens, UniProt P50613). Particulars: CDK7/cyclin H, [ATP] 50 µM; for remaining activity at 0.5 µM / remaining activity at 0.1 µM: read-out: % Enzyme Activity (relative to DMSO controls); for remaining activity at 0.1 µM: 100 nM.
Sequence of 363 human kinases (including Aurora A/B/C) (Homo sapiens, UniProt P50613) (P50613 whole entry): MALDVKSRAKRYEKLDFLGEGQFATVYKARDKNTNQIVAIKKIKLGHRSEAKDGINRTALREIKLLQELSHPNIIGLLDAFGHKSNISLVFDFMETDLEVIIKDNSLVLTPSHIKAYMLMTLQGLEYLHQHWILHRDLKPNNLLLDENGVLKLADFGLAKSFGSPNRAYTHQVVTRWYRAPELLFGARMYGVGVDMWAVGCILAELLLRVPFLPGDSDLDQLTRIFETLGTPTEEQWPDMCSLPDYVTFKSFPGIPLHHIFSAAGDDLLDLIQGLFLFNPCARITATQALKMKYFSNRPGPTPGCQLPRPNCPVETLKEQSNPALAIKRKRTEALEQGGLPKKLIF
From the text: as §1
Test [6] addresses 363 human kinases (including Aurora A/B/C) (Homo sapiens, UniProt Q9UPE1). The settings on record: MSSK1/STK23; for remaining activity at 0.5 µM / remaining activity at 0.1 µM: read-out: % Enzyme Activity (relative to DMSO controls); for remaining activity at 0.1 µM: 100 nM.
From the text: as §1
For test [7], the target named is 363 human kinases (including Aurora A/B/C) (Homo sapiens, UniProt Q8N568). Particulars: DCAMKL2, [ATP] 100 µM; for remaining activity at 0.5 µM / remaining activity at 0.1 µM: read-out: % Enzyme Activity (relative to DMSO controls); for remaining activity at 0.1 µM: 100 nM.
Sequence of 363 human kinases (including Aurora A/B/C) (Homo sapiens, UniProt Q8N568) (Q8N568 whole entry): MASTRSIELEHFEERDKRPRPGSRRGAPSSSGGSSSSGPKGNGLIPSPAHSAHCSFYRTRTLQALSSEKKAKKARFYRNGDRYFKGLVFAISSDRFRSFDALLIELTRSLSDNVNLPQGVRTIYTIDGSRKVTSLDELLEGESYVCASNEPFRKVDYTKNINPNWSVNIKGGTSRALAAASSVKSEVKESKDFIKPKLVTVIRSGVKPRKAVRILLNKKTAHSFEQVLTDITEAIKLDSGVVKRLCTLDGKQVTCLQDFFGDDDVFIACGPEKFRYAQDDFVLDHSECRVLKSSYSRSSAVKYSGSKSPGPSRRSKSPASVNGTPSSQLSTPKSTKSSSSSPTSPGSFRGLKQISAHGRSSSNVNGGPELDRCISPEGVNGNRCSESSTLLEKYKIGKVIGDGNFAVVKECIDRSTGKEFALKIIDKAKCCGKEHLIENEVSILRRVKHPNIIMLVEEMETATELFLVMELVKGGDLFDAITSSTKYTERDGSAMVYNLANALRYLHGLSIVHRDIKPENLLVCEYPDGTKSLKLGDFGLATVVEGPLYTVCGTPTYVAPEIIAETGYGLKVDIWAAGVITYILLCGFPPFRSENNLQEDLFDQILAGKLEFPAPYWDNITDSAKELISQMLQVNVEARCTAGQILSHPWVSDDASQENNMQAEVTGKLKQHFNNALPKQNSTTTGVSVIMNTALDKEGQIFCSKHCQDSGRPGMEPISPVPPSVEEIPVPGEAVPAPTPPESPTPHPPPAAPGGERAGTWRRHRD
From the text: as §1
Test [8] concerns the target 363 human kinases (including Aurora A/B/C) (Homo sapiens, UniProt P45984). The settings on record: JNK2; for remaining activity at 0.5 µM / remaining activity at 0.1 µM: read-out: % Enzyme Activity (relative to DMSO controls); for remaining activity at 0.1 µM: 100 nM.
From the text: as §1
In test [9] the target is T3, 363 human kinases (including Aurora A/B/C) (Homo sapiens, UniProt Q04771).
T3 sequence (Q04771 21-509): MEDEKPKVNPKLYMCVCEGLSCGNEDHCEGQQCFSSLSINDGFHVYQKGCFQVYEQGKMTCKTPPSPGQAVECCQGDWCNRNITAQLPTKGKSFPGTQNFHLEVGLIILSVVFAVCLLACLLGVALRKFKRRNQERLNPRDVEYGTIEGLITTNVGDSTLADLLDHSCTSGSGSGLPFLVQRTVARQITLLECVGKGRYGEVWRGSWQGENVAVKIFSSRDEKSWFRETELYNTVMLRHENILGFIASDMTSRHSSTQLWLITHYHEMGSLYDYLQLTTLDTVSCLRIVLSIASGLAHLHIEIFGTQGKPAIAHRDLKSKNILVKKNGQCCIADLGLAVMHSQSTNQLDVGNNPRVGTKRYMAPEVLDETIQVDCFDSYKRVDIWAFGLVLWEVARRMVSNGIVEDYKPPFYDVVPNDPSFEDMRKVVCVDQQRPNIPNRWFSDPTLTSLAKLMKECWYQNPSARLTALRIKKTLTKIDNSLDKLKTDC
The settings on record: ALK2/ACVR1, [ATP] 20 µM; for remaining activity at 0.5 µM / remaining activity at 0.1 µM: read-out: % Enzyme Activity (relative to DMSO controls); for remaining activity at 0.1 µM: 100 nM.
From the text: as §1

Sequence of 363 human kinases (including Aurora A/B/C) (Homo sapiens, UniProt Q9UPE1) (Q9UPE1 whole entry): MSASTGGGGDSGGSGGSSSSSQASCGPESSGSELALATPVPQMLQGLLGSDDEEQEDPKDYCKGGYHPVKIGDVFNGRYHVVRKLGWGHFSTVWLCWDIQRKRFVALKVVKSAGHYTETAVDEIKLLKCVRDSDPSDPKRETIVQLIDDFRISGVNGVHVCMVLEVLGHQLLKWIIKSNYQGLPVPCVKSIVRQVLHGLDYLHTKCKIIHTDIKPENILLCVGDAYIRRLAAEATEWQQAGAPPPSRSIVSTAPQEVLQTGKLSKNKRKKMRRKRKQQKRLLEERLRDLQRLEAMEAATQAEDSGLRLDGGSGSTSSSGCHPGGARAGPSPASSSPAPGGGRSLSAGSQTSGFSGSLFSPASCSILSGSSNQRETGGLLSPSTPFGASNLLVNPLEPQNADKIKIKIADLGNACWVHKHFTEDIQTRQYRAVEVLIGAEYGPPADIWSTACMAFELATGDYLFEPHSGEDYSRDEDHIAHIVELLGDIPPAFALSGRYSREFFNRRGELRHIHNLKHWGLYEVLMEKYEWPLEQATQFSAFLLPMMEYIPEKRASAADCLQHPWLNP
Sequence of 363 human kinases (including Aurora A/B/C) (Homo sapiens, UniProt P45984) (P45984 whole entry): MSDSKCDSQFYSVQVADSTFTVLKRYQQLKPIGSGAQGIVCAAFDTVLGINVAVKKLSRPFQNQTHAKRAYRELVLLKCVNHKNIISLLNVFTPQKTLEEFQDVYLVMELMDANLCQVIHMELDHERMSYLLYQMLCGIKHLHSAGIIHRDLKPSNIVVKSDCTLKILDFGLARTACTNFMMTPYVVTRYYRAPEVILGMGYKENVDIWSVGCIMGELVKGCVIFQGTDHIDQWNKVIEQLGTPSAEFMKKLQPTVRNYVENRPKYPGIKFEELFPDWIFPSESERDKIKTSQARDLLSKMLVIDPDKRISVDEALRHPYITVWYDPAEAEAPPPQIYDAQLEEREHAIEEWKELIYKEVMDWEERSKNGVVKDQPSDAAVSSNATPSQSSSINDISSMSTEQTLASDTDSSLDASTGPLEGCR

In the case of `O=C(c1cccc(Cl)c1F)N1CCN(Cc2cccc(Nc3nccs3)n2)CC1` [MK-8745], the “% Enzyme Activity (relative to DMSO controls)” value was 89.30% in test [1] (500 nM); 96.81% in test [2] (500 nM); 98.74% in test [3] (500 nM); 71.49% in test [4] (500 nM); 107.62% in [5] (500 nM); 93.46% in [6] (500 nM). Besides, the entries for the “% Enzyme Activity (relative to DMSO controls)” value in test [7] (500 nM), in test [8] (500 nM) and in test [9] (500 nM) were 95.95%, 49.53% and 140.43%, respectively. For the same compound, the remaining activity at 0.5 µM was determined as 91.1% in test [1] (500 nM); 97.1% in test [2] (500 nM); 100% in [3] (500 nM); 73.2% in test [4] (500 nM); 110% in [5] (500 nM); 93.6% in test [6] (500 nM). For the same compound, the remaining activity at 0.5 µM in [7] (500 nM) was determined as 96%; in test [8] (500 nM) it was 49.7%; in test [9] (500 nM), 146%.
On to `CCn1cc(-c2ccnc3[nH]c(-c4cccc(CN(C)C)c4)cc23)c(-c2ccc(NC(=O)N(C)C)cc2)n1` [GSK1070916], for which the remaining activity at 0.1 µM in test [1] is 97.8%; in [2], 106%; in [3], 106%; in test [4], 76.1%; in test [5], 109%; in test [6], 95.5%. The remaining activity at 0.1 µM in test [7] was 91.5%; in [8], 94.7%; in test [9], 130%.
In the case of `O=C(O)[C@]1(Cc2cccc(Nc3nccs3)n2)CC[C@@H](Oc2cccc(Cl)c2F)CC1` [MK-5108], the remaining activity at 0.1 µM worked out at 98.3% in test [1]; 99.2% in [2]; 104% in [3]; 21.8% in test [4]; 95.9% in [5]; 99% in test [6]. The values for the remaining activity at 0.1 µM in test [7], in [8] and in test [9] were 98.2%, 95.7% and 116%, respectively. Moreover, the remaining activity at 0.5 µM in [1] (500 nM) was 80.5%; in test [2] (500 nM), 99.2%; in test [3] (500 nM) it was 101%; in test [4] (500 nM), 9.68%; in [5] (500 nM) it was 112%; in [6] (500 nM), 85%. Also, the remaining activity at 0.5 µM turned out to be 96.3% in test [7] (500 nM), 86.7% in test [8] (500 nM) and 34.5% in [9] (500 nM).
